From patent publication US8530489B2 (Vertex Pharmaceuticals Incorporated, priority 2006, dated 2013)

The compounds below were run against PLK1 (Homo sapiens, UniProt P53350) (assay: PLK1 Inhibition Assay I (radioactive-phosphate incorporation)). Conditions: Ki(app); PLK1 Inhibition Assay I or II (table does not say which).
Type: biochemical
Description: The compounds of the present invention are evaluated as inhibitors of human PLK kinase using the following assays.
Compounds were screened for their ability to inhibit PLK1 using a radioactive-phosphate incorporation assay. Assays were carried out in a mixture of 25 mM HEPES (pH 7.5), 10 mM MgCl2, and 1 mM DTT. Final substrate concentrations were 350 μM [γ-33P]ATP (136 mCi 33P ATP/mmol ATP, Amersham Pharmacia Biotech/Sigma Chemicals) and 450 μM peptide (KKKISDELMDATFADQEAK) [SEQ. ID:1]. Assays were carried out at 25° C. in the presence of 2 nM PLK1. An assay stock buffer solution was prepared containing all of the reagents listed above, with the exception of ATP and the test compound of interest. 30 μL of the stock solution was placed in a 96 well plate followed by addition of 2 μL of DMSO stock containing serial dilutions of the test compound (typically starting from a final concentration of 10 μM with 2-fold serial dilutions) in duplicate (final DMSO concentration 5%). The plate was pre-incubated for 10 minutes at 25° C. and the reaction initiated by addition of 8 μL [γ-33P]ATP (final concentration 350 μM).
The reaction was stopped after 240 minutes by the addition of 100 μL 0.14M phosphoric acid. A multiscreen phosphocellulose filter 96-well plate (Millipore, Cat No. MAPHN0B50) was pretreated with 100 μL 0.1 M phosphoric acid prior to the addition of 125 μL of the stopped assay mixture. The plate was washed with 4×200 μL 0.1 M phosphoric acid. After drying, 100 μL Optiphase ‘SuperMix’ liquid scintillation cocktail (Perkin Elmer) was added to the well prior to scintillation counting (1450 Microbeta Liquid Scintillation Counter, Wallac).
After removing mean background values for all of the data points, Ki(app) data were calculated from non-linear regression analysis of the initial rate data using the Prism software package (GraphPad Prism version 3.0cx for Macintosh, GraphPad Software, San Diego Calif., USA).

Chain of PLK1 (P53350 whole entry): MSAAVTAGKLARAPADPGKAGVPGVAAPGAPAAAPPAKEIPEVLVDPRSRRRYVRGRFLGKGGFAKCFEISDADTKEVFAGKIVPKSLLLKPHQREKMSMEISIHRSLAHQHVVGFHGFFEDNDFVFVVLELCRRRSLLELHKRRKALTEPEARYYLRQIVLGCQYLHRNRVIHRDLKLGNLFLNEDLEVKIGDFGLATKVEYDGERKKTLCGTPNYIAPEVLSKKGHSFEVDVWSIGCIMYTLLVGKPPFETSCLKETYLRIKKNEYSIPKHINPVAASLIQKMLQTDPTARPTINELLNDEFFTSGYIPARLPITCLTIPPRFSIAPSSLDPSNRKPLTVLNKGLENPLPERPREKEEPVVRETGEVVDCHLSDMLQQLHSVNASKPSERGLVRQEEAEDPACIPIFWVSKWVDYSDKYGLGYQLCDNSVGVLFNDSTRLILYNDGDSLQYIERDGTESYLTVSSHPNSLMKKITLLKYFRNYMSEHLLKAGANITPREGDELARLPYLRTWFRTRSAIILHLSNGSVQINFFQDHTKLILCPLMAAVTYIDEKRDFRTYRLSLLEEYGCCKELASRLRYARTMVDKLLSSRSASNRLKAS

Question: `CCCC(C)Sc1ncc(C#N)c(-c2c[nH]c3ncc(C(F)(F)F)cc23)n1` (stereo not shown) [II-16, 2-(pentan-2-ylthio)-4-(5-(trifluoromethyl)-1H-pyrrolo[2,3-b]pyridin-3-yl)pyrimidine-5-carbonitrile] was tested. Which Ki did it give?
Answer: > 40 nM

Question: How did the Ki turn out when `CCC(=O)Nc1ccc([C@@H](C)Nc2ncc(C#N)c(-c3c[nH]c4ncc(C(F)(F)F)cc34)n2)cc1` [Compound I-144, N-(4-((1R)-1-(5-cyano-4-(5-(trifluoromethyl)-1H-pyrrolo[2,3-b]pyridin-3-yl)pyrimidin-2-ylamino)ethyl)phenyl)propionamide] was run?
Answer: < 3 nM

Question: With `COC[C@@H](Nc1ncc(C#N)c(-c2c[nH]c3ncc(C(F)(F)F)cc23)n1)c1ccccc1` [Compound I-43, 2-((S)-2-methoxy-1-phenylethylamino)-4-(5-(trifluoromethyl)-1H-pyrrolo[2,3-b]pyridin-3-yl)pyrimidine-5-carbonitrile] as the compound, how does the Ki read?
Answer: > 40 nM

Question: How did the Ki turn out when `COc1ccc(C(C)Nc2ncc(C#N)c(-c3c[nH]c4ncc(C(F)(F)F)cc34)n2)cc1Cl` (stereo not shown) [Compound I-84, 2-(1-(3-chloro-4-methoxyphenyl)ethylamino)-4-(5-(trifluoromethyl)-1H-pyrrolo[2,3-b]pyridin-3-yl)pyrimidine-5-carbonitrile] was run?
Answer: < 3 nM

Question: Which Ki does the source give for `CC(Nc1ncc(C#N)c(-c2c[nH]c3ncc(C(F)(F)F)cc23)n1)[C@H]1C[C@@H](O)C1` (stereo partly drawn) [Compound I-270, 2-((S)-1-((1s,3R)-3-hydroxycyclobutyl)ethylamino)-4-(5-(trifluoromethyl)-1H-pyrrolo[2,3-b]pyridin-3-yl)pyrimidine-5-carbonitrile] here?
Answer: < 3 nM

Question: With `CCC(=O)N1CCC(C(C)Nc2ncc(C#N)c(-c3c[nH]c4ncc(C(F)(F)F)cc34)n2)CC1` (stereo not shown) [Compound I-187, 2-(1-(1-propionylpiperidin-4-yl)ethylamino)-4-(5-(trifluoromethyl)-1H-pyrrolo[2,3-b]pyridin-3-yl)pyrimidine-5-carbonitrile] as the compound, how does the Ki read?
Answer: < 3 nM

Question: Which Ki does the source give for `C[C@@H](O)C(=O)N1CCC([C@@H](C)Nc2ncc(C#N)c(-c3c[nH]c4ncc(C(F)(F)F)cc34)n2)CC1` [Compound I-207, 2-((R)-1-(1-((R)-2-hydroxypropanoyl)piperidin-4-yl)ethylamino)-4-(5-(trifluoromethyl)-1H-pyrrolo[2,3-b]pyridin-3-yl)pyrimidine-5-carbonitrile] here?
Answer: < 3 nM

Question: For `C[C@@H](Nc1ncc(C#N)c(-c2c[nH]c3ncc(C(F)(F)F)cc23)n1)[C@H]1CC[C@@H](N2CCN(C)CC2)CC1` [Compound I-245, 2-((R)-1-((1s,4S)-4-(4-methylpiperazin-1-yl)cyclohexyl)ethylamino)-4-(5-(trifluoromethyl)-1H-pyrrolo[2,3-b]pyridin-3-yl)pyrimidine-5-carbonitrile], which Ki is on record?
Answer: > 40 nM

Question: With `N#Cc1cnc(NCc2ccc(Oc3ccccc3)cc2)nc1-c1c[nH]c2ncc(C(F)(F)F)cc12` [Compound I-46, 2-(4-phenoxybenzylamino)-4-(5-(trifluoromethyl)-1H-pyrrolo[2,3-b]pyridin-3-yl)pyrimidine-5-carbonitrile] as the compound, how does the Ki read?
Answer: > 40 nM

Question: With `C[C@@H](Nc1ncc(C#N)c(-c2c[nH]c3ncc(C(F)(F)F)cc23)n1)C1CCN(C(=O)CCN)CC1` [Compound I-224, 2-((R)-1-(1-(3-aminopropanoyl)piperidin-4-yl)ethylamino)-4-(5-(trifluoromethyl)-1H-pyrrolo[2,3-b]pyridin-3-yl)pyrimidine-5-carbonitrile] as the compound, how does the Ki read?
Answer: < 3 nM

Question: With `C[C@@H](Nc1ncc(C#N)c(-c2c[nH]c3ncc(C(F)(F)F)cc23)n1)c1ccc(O[C@H]2CCN(C)C2)cc1` [Compound I-146, 2-((R)-1-(4-((S)-1-methylpyrrolidin-3-yloxy)phenyl)ethylamino)-4-(5-(trifluoromethyl)-1H-pyrrolo[2,3-b]pyridin-3-yl)pyrimidine-5-carbonitrile] as the compound, how does the Ki read?
Answer: < 3 nM

Question: Which Ki does the source give for `C[C@@H](Nc1ncc(C#N)c(-c2c[nH]c3ncc(C(F)(F)F)cc23)n1)C1CCN(C(=O)[C@H](N)CC#N)CC1` [Compound I-251, 2-((R)-1-(1-((R)-2-amino-3-cyanopropanoyl)piperidin-4-yl)ethylamino)-4-(5-(trifluoromethyl)-1H-pyrrolo[2,3-b]pyridin-3-yl)pyrimidine-5-carbonitrile] here?
Answer: < 3 nM

Question: With `CC(=O)Nc1ccc(CNc2ncc(C#N)c(-c3c[nH]c4ncc(C(F)(F)F)cc34)n2)cc1` [Compound I-72, N-(4-((5-cyano-4-(5-(trifluoromethyl)-1H-pyrrolo[2,3-b]pyridin-3-yl)pyrimidin-2-ylamino)methyl)phenyl)acetamide] as the compound, how does the Ki read?
Answer: 3 to 40 nM

Question: With `N#Cc1cnc(NCc2cccc(Cl)c2)nc1-c1c[nH]c2ncc(C(F)(F)F)cc12` [Compound I-13, 2-(3-chlorobenzylamino)-4-(5-(trifluoromethyl)-1H-pyrrolo[2,3-b]pyridin-3-yl)pyrimidine-5-carbonitrile] as the compound, how does the Ki read?
Answer: > 40 nM

Question: For `C[C@@H](Nc1ncc(C#N)c(-c2c[nH]c3ncc(C(F)(F)F)cc23)n1)c1ccc(N2CCN3CCC[C@H]3C2)nc1` [Compound I-291, 2-((R)-1-(6-((S)-hexahydropyrrolo[1,2-a]pyrazin-2(1H)-yl)pyridin-3-yl)ethylamino)-4-(5-(trifluoromethyl)-1H-pyrrolo[2,3-b]pyridin-3-yl)pyrimidine-5-carbonitrile], which Ki is on record?
Answer: < 3 nM

Question: `C[C@@H](Nc1ncc(C#N)c(-c2c[nH]c3ncc(C(F)(F)F)cc23)n1)C1CCN(C(=O)[C@@H](N)CO)CC1` [Compound I-239, 2-((R)-1-(1-((S)-2-amino-3-hydroxypropanoyl)piperidin-4-yl)ethylamino)-4-(5-(trifluoromethyl)-1H-pyrrolo[2,3-b]pyridin-3-yl)pyrimidine-5-carbonitrile] was tested. Which Ki did it give?
Answer: < 3 nM

Question: Which Ki does the source give for `CC(C)Nc1ncc(C#N)c(-c2c[nH]c3ncc(Nc4ccccc4)cc23)n1` [EG6, 2-(isopropylamino)-4-(5-(phenylamino)-1H-pyrrolo[2,3-b]pyridin-3-yl)pyrimidine-5-carbonitrile] here?
Answer: 3 to 40 nM

Question: For `N#Cc1cnc(Sc2ccc(Cl)cc2)nc1-c1c[nH]c2ncc(C(F)(F)F)cc12` [II-2, 2-(4-chlorophenylthio)-4-(5-(trifluoromethyl)-1H-pyrrolo[2,3-b]pyridin-3-yl)pyrimidine-5-carbonitrile], which Ki is on record?
Answer: > 40 nM

Question: For `C[C@@H](Nc1ncc(C#N)c(-c2c[nH]c3ncc(C(F)(F)F)cc23)n1)c1ccc(O)cc1` [Compound I-99, 2-((R)-1-(4-hydroxyphenyl)ethylamino)-4-(5-(trifluoromethyl)-1H-pyrrolo[2,3-b]pyridin-3-yl)pyrimidine-5-carbonitrile], which Ki is on record?
Answer: < 3 nM

Question: For `C[C@@H](Nc1ncc(C#N)c(-c2c[nH]c3ncc(C(F)(F)F)cc23)n1)C1CCN(CCO)CC1` [Compound I-215, 2-((R)-1-(1-(2-hydroxyethyl)piperidin-4-yl)ethylamino)-4-(5-(trifluoromethyl)-1H-pyrrolo[2,3-b]pyridin-3-yl)pyrimidine-5-carbonitrile], which Ki is on record?
Answer: < 3 nM

Question: How did the Ki turn out when `N#Cc1cnc(NC[C@H](O)CO)nc1-c1c[nH]c2ncc(C(F)(F)F)cc12` [Compound I-114, 2-((S)-2,3-dihydroxypropylamino)-4-(5-(trifluoromethyl)-1H-pyrrolo[2,3-b]pyridin-3-yl)pyrimidine-5-carbonitrile] was run?
Answer: 3 to 40 nM

Question: Which Ki does the source give for `CC(Nc1ncc(C#N)c(-c2c[nH]c3ncc(C(F)(F)F)cc23)n1)C1CN(C(=O)CN)C1` (stereo not shown) [Compound I-235, 2-(1-(1-(2-aminoacetyl)azetidin-3-yl)ethylamino)-4-(5-(trifluoromethyl)-1H-pyrrolo[2,3-b]pyridin-3-yl)pyrimidine-5-carbonitrile] here?
Answer: > 40 nM
